# Tests used:
# [1] = tested on: VP8* P[8]c binding to the H1 antigen; test: Binding blocking assay, immobilized H1 antigen; set-up: species or system human rotavirus; conditions: soluble sugar at 20 mM
# Protocol: (§1) To confirm the binding of the VP8* from the P[8] genotype to the H type-1 precursor LNB, a blocking assay was performed using soluble LNB and its related disaccharide galacto-N-biose (Gal-β-1,3-GalNAc; GNB) produced and purified in our laboratory as previously described.
# (§2) Streptavidin microtiter plates were coated with biotinylated H type-1 antigen or LNB at 2 μg/ml with water and incubated for 1 hour at 37°C, followed by an overnight incubation at 4°C. Blocking assays were performed in parallel, using glass tubes containing the P[8]c and P[8]Wa VP8* protein at their EC50 for each ligand and 20 mM of each of the soluble disaccharides (LNB and GNB) and monosaccharides (D-galactose, GlcNAc and GalNAc). A positive binding control without sugar was also included. The tubes containing the mixes of VP8* with sugars were maintained 1 hour at 37°C, followed by an overnight incubation at 4°C. The next day the coated streptavidin plates were washed with PBS-T, the VP8*-sugar solutions were added to the plates and incubated during 4 hours at 4°C. The plates were washed three times with PBS-T and detection of the interactions was performed as described above. The results are presented as the percentage (%) of binding of each condition compared to the binding of the positive binding control (without blocking sugar). All experiments were performed in triplicate.
# [2] = tested on: VP8* P[8]c binding to LNB; test: Binding blocking assay, immobilized LNB; set-up: species or system human rotavirus; conditions: soluble sugar at 20 mM
# Protocol: as §1, §2
# [3] = tested on: VP8* P[11]; test: ELISA-like binding assay to biotinylated HBGAs; set-up: species or system rotavirus; conditions: biotinylated PAA glycan 2 μg/ml, VP8* 10 μg/ml
# Excerpt: (§3) A panel of biotinylated sugar antigens including Le^a, Le^b, Le^c (lacto-N-biose; LNB), H type-1, H type-2 and blood group A and B trisaccharides were purchased from Glyconz (Fig 1 and S1 Table). These glycans are biotinylated neoglyconjugates of a poly[N-(2-hydroxyethyl)acrylamide] (PAA) with a size from 30 to 50 KDa. This forms a flexible polymer ideal for a multivalent presentation of glycans. Immobilized streptavidin F96 black plates (Nunc) were coated with the biotinylated oligosaccharides (2 μg/ml) in milli-Q water and incubated during 1 hour at 37°C. After functionalization the plates were washed once with PBS containing 0.05% of Tween 20 (PBS-T) and the VP8* proteins were added (10 μg/ml) and incubated at 4°C overnight. After three washes with PBS-T, a rabbit polyclonal antibody anti GST (1:1,000) (Abcam) was added and the plates were incubated one hour at 37°C. Then, the plates were washed three times with PBS-T and incubated for 1 h at 37°C with 1:10,000 dilution of horseradish peroxidase (HRP)-conjugated goat anti-rabbit (Abcam). After three washes with PBS-T, the binding was detected using QuantaBlue reagent (ThermoFisher) kit, as recommended by the manufacturer. Fluorescence units were registered by a MultiScan microplate reader. All the binding assays were performed in triplicate.
# [4] = tested on: VP8* P[4]; test: ELISA-like binding assay to biotinylated HBGAs; set-up: species or system human rotavirus; conditions: biotinylated PAA glycan 2 μg/ml, VP8* 10 μg/ml
# Excerpt: as §3
# [5] = tested on: VP8* P[8]; test: ELISA-like binding assay to biotinylated HBGAs; set-up: species or system human rotavirus; conditions: biotinylated PAA glycan 2 μg/ml, VP8* 10 μg/ml
# Excerpt: as §3
# [6] = tested on: VP8* P[14]; test: ELISA-like binding assay to biotinylated HBGAs; set-up: species or system human rotavirus; conditions: biotinylated PAA glycan 2 μg/ml, VP8* 10 μg/ml
# Excerpt: as §3
# [7] = tested on: VP8* P[9]; test: ELISA-like binding assay to biotinylated HBGAs; set-up: species or system human rotavirus; conditions: biotinylated PAA glycan 2 μg/ml, VP8* 10 μg/ml
# Excerpt: as §3
# [8] = tested on: VP8* P[25]; test: ELISA-like binding assay to biotinylated HBGAs; set-up: species or system rotavirus; conditions: biotinylated PAA glycan 2 μg/ml, VP8* 10 μg/ml
# Excerpt: as §3
molecule,measurement,setting,value
O=C[C@H](O)[C@@H](O)[C@@H](O)[C@H](O)CO [D-galactose],reduction in the binding to the H1 antigen,[1],14.7%
"CC(=O)N[C@H]1C(O)O[C@H](CO)[C@H](O)[C@@H]1O[C@@H]1O[C@H](CO)[C@H](O)[C@H](O)[C@H]1O (stereo partly drawn) [GNB, Gal-β1,3-GalNAc]",reduction in the binding to the H1 antigen,[1],30.1%
same,reduction of the binding of VP8* P[8]c to LNB,[2],44.1%
"CC(=O)NC1C(O)OC(CO)C(OC2OC(CO)C(O)C(O)C2OC2OC(C)C(O)C(O)C2O)C1O (stereo not drawn) [H2, Fuc-α1,2-Gal-β1,4-GlcNAc]",binding (ELISA-like),[3],recognized
C[C@H](O)[C@@H](O)[C@@H](O)[C@H](O)C=O [L-fucose],effect on the binding of VP8* to the H1 antigen,[1],significantly increased the binding
"Fuc-α1,2-Gal-β1,3-[Fuc-α1,4-]GlcNAc [Lewis^b]",binding (ELISA-like),[4],very low or absence of binding
same,binding (ELISA-like),[5],very low or absence of binding
"GlcNAc-α1,3-(Fucα1,2)-Gal [Atri]",binding (ELISA-like),[6],recognized
same,binding (ELISA-like),[5],low binding
same,binding (ELISA-like),[7],recognized
same,binding (ELISA-like),[8],recognized
